Results as given in EPA's ToxValDB 9.5.
“And” between values parts separate entries of the source, which are not always exact repeats. Equal values may be shown once.

Key:
Rattus norvegicus [1] = conditions: for LEL: uterotrophic, Active; for LOEL / NOEL: Hershberger
Oryctolagus sp. = conditions: acute, dermal
Rattus norvegicus [2] = conditions: for LD50 / LC50: acute
Rattus norvegicus [3] = conditions: subchronic; duration: 13 weeks; oral; diet; F; Fischer 344; Body Weight Changes: decrease + Histopathology: Bone marrow-Reticulum-cell hyperplasia Bone marrow-Myeloid depletion
[4] = short-term, duration: 4 weeks, oral, diet, Sprague-Dawley
[5] = duration: 10 days, oral, gavage, Sprague-Dawley, active + Antiandrogenic + anti-androgenic
[6] = chronic, oral, diet, Sprague-Dawley

CCCCC(CC)COC(=O)c1ccc(O)cc1 (stereo unspecified) [2-Ethylhexyl p-hydroxybenzoate]
LEL (Rattus norvegicus [1]; duration: 3 days, injection, subcutaneous): 200 mg/kg-day and 199 mg/kg-day

CCCCC(CC)COC(=O)c1c(Br)c(Br)c(Br)c(Br)c1C(=O)OCC(CC)CCCC (stereo unspecified) [Bis(2-ethylhexyl) tetrabromophthalate]
LD50 (Oryctolagus sp.; New Zealand): > 3090 mg/kg
LD50 (Rattus norvegicus [2]; oral, gavage, Crl:CD(SD)): > 5000 mg/kg
LOAEL (Rattus norvegicus [2]; [4]): 20000 ppm
NOAEL (Rattus norvegicus [2]; [4]): 2000 ppm

CCOC(=O)C(C)(C)Oc1ccc(Cl)cc1 [Clofibrate]
LEL (Rattus norvegicus [1]; duration: 3 days, oral): 4 mg/kg-day

CCCCCCCCCc1cc2ccccc2c(S(=O)(=O)O)c1CCCCCCCCC [Dinonylnaphthalenesulfonic acid]
LD50 (Oryctolagus sp.; New Zealand): > 2000 mg/kg
LC50 (Rattus norvegicus [2]; Inhalation, Wistar): > 200 µg/mL
LD50 (Rattus norvegicus [2]; oral, gavage, Sprague-Dawley): > 5000 mg/kg

CC(C#N)CCC#N (stereo unspecified) [2-Methylpentanedinitrile]
LD50 (Oryctolagus sp.; New Zealand): 776 mg/kg
LD50 (Rattus norvegicus [2]; oral, Sprague-Dawley): 205 mg/kg and ≥ 174 mg/kg and ≤ 243 mg/kg
NOAEL (Rattus norvegicus [2]; short-term, duration: 4 weeks, inhalation, Crl:CD(SD) BR): 25 mg/m3

COc1c(Cl)ccc(Cl)c1C(=O)[O-].[Na+] [Sodium dicamba]
LD50 (Oryctolagus sp.; occlusive, New Zealand): > 400 mg/kg
LD50 (Rattus norvegicus [2]; oral, Sprague-Dawley): > 1000 mg/kg

O=C1O[C@H]([C@@H](O)CO)C(O)=C1O [L-Ascorbic acid]
NOEL (Rattus norvegicus [3]): < 2400 mg/kg-day
LEL (Rattus norvegicus [1]; duration: 20 days, injection, subcutaneous): 25 mg/kg-day

O=C(Cl)c1ccccc1 [Benzoyl chloride]
LD50 (Oryctolagus sp.): 790 mg/kg
LD50 (Oryctolagus sp.; occlusive, New Zealand): > 2000 mg/kg
LC50 (Rattus norvegicus [2]; inhalation): 1.87 µg/mL
LC50 (Rattus norvegicus [2]; inhalation, Wistar): 1.45 µg/mL and > 1.98 µg/mL and > 2.34 µg/mL
LD50 (Rattus norvegicus [2]; oral): 2460 mg/kg and 1900 mg/kg
LD50 (Rattus norvegicus [2]; oral, Spartan): 2620 mg/kg
LD50 (Rattus norvegicus [2]; oral, gavage, Wistar): 2530 mg/kg

CC#C[C@]1(O)CC[C@H]2[C@@H]3CCC4=CC(=O)CCC4=C3[C@@H](c3ccc(N(C)C)cc3)C[C@@]21C [Mifepristone]
LOEL (Rattus norvegicus [1]; [5]): 25 mg/kg-day
NOEL (Rattus norvegicus [1]; [5]): 10 mg/kg-day
LEL (Rattus norvegicus [1]; duration: 4 days, injection, intraperitoneal): 100 mg/kg-day

Cc1c2ccccc2c(C)c2c1ccc1ccccc12 [7,12-Dimethylbenz(a)anthracene]
LEL (Rattus norvegicus [1]; duration: 1 days, injection, subcutaneous): 15 mg/kg-day

O=C1c2ccccc2C(=O)N1SC1CCCCC1 [N-(Cyclohexylthio)phthalimide]
LD50 (Oryctolagus sp.; occlusive, New Zealand): > 5010 mg/kg
LOAEL (Rattus norvegicus [2]; [6]): 150 mg/kg-day
NOAEL (Rattus norvegicus [2]; [6]): 50 mg/kg-day

[Na+].[S-]c1nc2ccccc2s1 [Sodium 2-mercaptobenzothiolate]
LD50 (Oryctolagus sp.): > 7940 mg/kg
LD50 (Oryctolagus sp.; occlusive, New Zealand): > 7940 mg/kg
LC50 (Rattus norvegicus [2]; inhalation): > 6.5 µg/mL
LC50 (Rattus norvegicus [2]; inhalation, Sprague-Dawley): > 1.3 µg/mL
LD50 (Rattus norvegicus [2]; oral): 4350 mg/kg
LD50 (Rattus norvegicus [2]; oral, Sprague-Dawley): 1480 mg/kg and 4350 mg/kg

C[C@]12CC[C@@H]3c4ccc(OC(=O)c5ccccc5)cc4CC[C@H]3[C@@H]1CC[C@@H]2O [Estradiol benzoate]
LOEL (Rattus norvegicus [1]; duration: 7 days, injection, subcutaneous, Wistar, active + Androgenic + androgenic): 0.0025 mg/kg-day

CC(C)[C@H](C(=O)O[C@H](C#N)c1cccc(Oc2ccccc2)c1)c1ccc(Cl)cc1 [Esfenvalerate]
NOEL (Rattus norvegicus [1]; duration: 10 days, oral, gavage, Sprague-Dawley, inactive + Negative + Negative + neither + negative): 9 mg/kg-day

CC(C)CCCCCCCOP(=S)([S-])OCCCCCCCC(C)C.CC(C)CCCCCCCOP(=S)([S-])OCCCCCCCC(C)C.[Zn+2]
LD50 (Oryctolagus sp.; New Zealand): > 8000 mg/kg

CCCCCCCCc1ccc(O)cc1 [4-Octylphenol]
LD50 (Rattus norvegicus [2]; oral, gavage, albino): 1100 mg/kg and 1200 mg/kg and 1400 mg/kg
LEL (Rattus norvegicus [1]; duration: 4 days, oral): 100 mg/kg-day
